Assay results reported in PMC7320145, “Substrate Channeling via a Transient Protein-Protein Complex: The case of D-Glyceraldehyde-3-Phosphate Dehydrogenase and L-Lactate Dehydrogenase” (Scientific Reports, 2020).

Experiments:
[1] = target: T1, rmGAPDH (rabbit muscle GAPDH) (Oryctolagus cuniculus, UniProt P46406); assay: fluorescence titration, average of four read-outs (protein quenching, NADH quenching, FRET, anisotropy); details: in terms of NADH binding sites on each tetramer; average over sites (enzyme with negative cooperativity)
T1 construct: natural full-length enzyme from rabbit muscle, homotetramer; purified in-house by established protocols or purchased from Sigma; apo-enzyme
T1 sequence (P46406 whole entry): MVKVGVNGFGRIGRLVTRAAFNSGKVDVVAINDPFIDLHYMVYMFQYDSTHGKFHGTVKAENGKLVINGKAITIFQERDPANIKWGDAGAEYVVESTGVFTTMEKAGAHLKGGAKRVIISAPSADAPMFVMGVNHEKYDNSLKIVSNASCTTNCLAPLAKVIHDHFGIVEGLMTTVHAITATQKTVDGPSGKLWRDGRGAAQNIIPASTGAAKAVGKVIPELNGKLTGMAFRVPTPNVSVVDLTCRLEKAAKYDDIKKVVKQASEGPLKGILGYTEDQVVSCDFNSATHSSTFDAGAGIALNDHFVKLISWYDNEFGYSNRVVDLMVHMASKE
From the text: fluorescence titration, average of four read-outs (protein quenching, NADH quenching, FRET, anisotropy) on rmGAPDH (rabbit muscle GAPDH)

[2] = target: T2, byGAPDH (baker's yeast GAPDH); assay: as above; parameters: species or system Saccharomyces cerevisiae; details: in terms of NADH binding sites on each tetramer
T2 construct: gene TDH3; purified in-house or purchased from Sigma; apo-enzyme
From the text: fluorescence titration, average of four read-outs (protein quenching, NADH quenching, FRET, anisotropy) on byGAPDH (baker's yeast GAPDH)

Structure (SMILES): NC(=O)C1=CN([C@@H]2O[C@H](COP(=O)(O)OP(=O)(O)OC[C@H]3O[C@@H](n4cnc5c(N)ncnc54)[C@H](O)[C@@H]3O)[C@@H](O)[C@H]2O)C=CC1 [NADH]
- rmGAPDH-NADH KD fluorescence measurements [1]: 0.8 ± 0.06 micro Molar
- byGAPDH-NADH KD fluorescence measurements [2]: 8.2 ± 0.5 micro Molar
